Assay results published in PubChem BioAssay (NCI).
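Briefly, cells in 96-well plates were exposed to five compound concentrations for 48 h, and endpoints were estimated by linear interpolation. Abbreviation: GI50, concentration required for 50% inhibition of growth. At the TGI there is no net growth.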

How the values were obtained:
Assay in all cases: DTP human tumour cell line panel, 48 h; in the data active means GI50 below about 0.43 µM; inactive means the rest
[1] = tested on: HCT-116 colon
[2] = tested on: T-47D breast
[3] = tested on: SN12C renal
[4] = tested on: HL-60(TB) leukemia
[5] = tested on: LOX IMVI melanoma
[6] = tested on: 786-0 renal
[7] = tested on: SR leukemia
[8] = tested on: OVCAR-4 ovarian
[9] = tested on: OVCAR-5 ovarian
[10] = tested on: IGROV1 ovarian
[11] = tested on: HOP-62 NSCLC
[12] = tested on: SNB-19 CNS
[13] = tested on: HOP-92 NSCLC
[14] = tested on: A549 NSCLC
[15] = tested on: U251 CNS
[16] = tested on: M14 melanoma
[17] = tested on: SK-MEL-5 melanoma
[18] = tested on: NCI-H226 lung
[19] = tested on: MALME-3M melanoma
[20] = tested on: HS 578T breast
[21] = tested on: HCC-2998 colon
[22] = tested on: SK-MEL-28 melanoma
[23] = tested on: NCI-H522 lung
[24] = tested on: HT29 colon
[25] = tested on: EKVX NSCLC
[26] = tested on: CCRF-CEM leukemia
[27] = tested on: SNB-75 CNS
[28] = tested on: OVCAR-3 ovarian
[29] = tested on: BT-549 breast
[30] = tested on: K-562 leukemia
[31] = tested on: NCI-H460 lung
[32] = tested on: CAKI-1 renal
[33] = tested on: ACHN renal
[34] = tested on: SF-268 CNS
[35] = tested on: SF-539 CNS
[36] = tested on: SW-620 colon
[37] = tested on: NCI-H23 lung
[38] = tested on: UACC-257 melanoma
[39] = tested on: MCF7 breast
[40] = tested on: UO-31 renal
[41] = tested on: SF-295 CNS
[42] = tested on: RPMI-8226 leukemia
[43] = tested on: HCT-15 colon
[44] = tested on: PC-3 prostate
[45] = tested on: UACC-62 melanoma
[46] = tested on: COLO 205 colon
[47] = tested on: DU-145 prostate
[48] = tested on: OVCAR-8 ovarian
[49] = tested on: RXF 393 renal
[50] = tested on: KM12 colon
[51] = tested on: NCI/ADR-RES ovarian
[52] = tested on: TK-10 renal
[53] = tested on: A498 renal
[54] = tested on: MOLT-4 leukemia
[55] = tested on: MDA-MB-435
[56] = tested on: MDA-MB-231 breast
[57] = tested on: SK-OV-3 ovarian
[58] = tested on: SK-MEL-2 melanoma

CC1(C)CC2C(=O)c3ccccc3NC2c2ccccc21 (configuration not stated)
22.1 µM: TGI [46]
> 22.8 µM: TGI [35]
> 67.2 µM: TGI [40]
> 100 µM: TGI [1] | TGI [2] | TGI [3] | TGI [5] | TGI [6] | TGI [7] | TGI [8] | TGI [9] | TGI [10] | TGI [11] | TGI [12] | TGI [13] | TGI [14] | TGI [15] | TGI [16] | TGI [18] | TGI [19] | TGI [21] | TGI [22] | TGI [25] | TGI [26] | TGI [27] | TGI [28] | TGI [29] | TGI [31] | TGI [32] | TGI [33] | TGI [34] | TGI [36] | TGI [38] | TGI [39] | TGI [43] | TGI [44] | TGI [45] | TGI [47] | TGI [48] | TGI [51] | TGI [52] | TGI [53]
14.4 µM: TGI [42]
32.6 µM: TGI [4]
6.99 µM: TGI [20]
4.49 µM: TGI [23]
> 22.9 µM: TGI [41]
> 33.2 µM: TGI [24]
8.58 µM: TGI [49]
> 81.3 µM: TGI [50]
> 90.6 µM: TGI [30]
> 64.8 µM: TGI [37]
26.7 µM: TGI [17]

CCOC(=O)C1CCC(=O)N1C(=O)c1ccccc1 (configuration not stated)
> 100 µM: TGI [1] | TGI [2] | TGI [3] | TGI [4] | TGI [5] | TGI [6] | TGI [7] | TGI [9] | TGI [10] | TGI [11] | TGI [12] | TGI [13] | TGI [14] | TGI [15] | TGI [16] | TGI [17] | TGI [54] | TGI [18] | TGI [55] | TGI [19] | TGI [20] | TGI [21] | TGI [22] | TGI [23] | TGI [24] | TGI [25] | TGI [26] | TGI [28] | TGI [56] | TGI [29] | TGI [30] | TGI [31] | TGI [32] | TGI [33] | TGI [34] | TGI [35] | TGI [36] | TGI [37] | TGI [38] | TGI [39] | TGI [40] | TGI [41] | TGI [42] | TGI [43] | TGI [44] | TGI [45] | TGI [47] | TGI [48] | TGI [49] | TGI [50] | TGI [51] | TGI [52] | TGI [53]

Cn1cc(C2=C(c3cn(C4CCN(Cc5ccccn5)CC4)c4ccccc34)C(=O)NC2=O)c2ccccc21
> 91.1 µM: TGI [6]
> 100 µM: TGI [1] | TGI [2] | TGI [3] | TGI [4] | TGI [5] | TGI [7] | TGI [9] | TGI [10] | TGI [12] | TGI [13] | TGI [14] | TGI [15] | TGI [16] | TGI [54] | TGI [55] | TGI [19] | TGI [21] | TGI [22] | TGI [23] | TGI [24] | TGI [26] | TGI [28] | TGI [56] | TGI [29] | TGI [57] | TGI [30] | TGI [31] | TGI [32] | TGI [33] | TGI [34] | TGI [35] | TGI [36] | TGI [37] | TGI [38] | TGI [39] | TGI [42] | TGI [43] | TGI [44] | TGI [45] | TGI [46] | TGI [47] | TGI [48] | TGI [50] | TGI [51] | TGI [52]
54.9 µM: TGI [11]
> 26.1 µM: TGI [41]
25.3 µM: TGI [49]
> 72.1 µM: TGI [20]
active: GI50 [27] 0.358 µM
> 25.9 µM: TGI [17]
9.74 µM: TGI [27]
47.5 µM: TGI [58]
inactive: GI50 [1] 3.03 µM | GI50 [2] 5.45 µM | GI50 [3] > 100 µM | GI50 [4] 3.97 µM | GI50 [5] 4.9 µM | GI50 [6] 8.43 µM | GI50 [7] 3.19 µM | GI50 [9] > 100 µM | GI50 [10] 9.7 µM | GI50 [11] 12.1 µM | GI50 [12] > 70.2 µM | GI50 [13] 83.2 µM | GI50 [14] 4.92 µM | GI50 [15] 3.74 µM | GI50 [16] 4.61 µM | GI50 [17] 2.94 µM | GI50 [54] 3.52 µM | GI50 [55] 2.87 µM | GI50 [19] > 23.4 µM | GI50 [20] 3.75 µM | GI50 [21] > 100 µM | GI50 [22] 6.07 µM | GI50 [23] 4.19 µM | GI50 [24] 2.4 µM | GI50 [26] 3.75 µM | GI50 [28] 3.82 µM | GI50 [56] > 100 µM | GI50 [29] 7.56 µM | GI50 [57] 5.55 µM | GI50 [30] 3.87 µM | GI50 [31] 4.92 µM | GI50 [32] > 21.6 µM | GI50 [33] 9.36 µM | GI50 [34] > 36.8 µM | GI50 [35] 3.03 µM | GI50 [36] 4.02 µM | GI50 [37] 6.31 µM | GI50 [38] 4.73 µM | GI50 [39] 3.23 µM | GI50 [41] 3.49 µM | GI50 [42] 3.93 µM | GI50 [43] 3.44 µM | GI50 [44] 3.97 µM | GI50 [45] 5.12 µM | GI50 [58] 3.08 µM | GI50 [46] 3.08 µM | GI50 [47] > 100 µM | GI50 [48] 6.23 µM | GI50 [49] 2.59 µM | GI50 [50] 3.85 µM | GI50 [51] 4.34 µM | GI50 [52] > 41.5 µM
